From ChEMBL document CHEMBL1126185, “2-(N'-alkylidenehydrazino)adenosines: potent and selective coronary vasodilators” (J Med Chem, 1992) come the findings set out here.

One assay addresses T1, Adenosine receptor A1 (Cavia porcellus, UniProt P47745).
T1 sequence (P47745 whole entry): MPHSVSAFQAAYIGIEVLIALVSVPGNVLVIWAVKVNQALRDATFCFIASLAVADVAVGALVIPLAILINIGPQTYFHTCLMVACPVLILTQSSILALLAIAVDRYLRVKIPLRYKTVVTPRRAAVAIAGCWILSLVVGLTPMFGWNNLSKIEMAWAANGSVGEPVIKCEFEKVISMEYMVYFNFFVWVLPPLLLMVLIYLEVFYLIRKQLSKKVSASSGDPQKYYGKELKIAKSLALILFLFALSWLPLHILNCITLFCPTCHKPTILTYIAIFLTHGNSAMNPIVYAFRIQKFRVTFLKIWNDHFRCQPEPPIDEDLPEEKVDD
Kind of assay: In vitro prolonging of the stimulus-QRS interval in guinea pig heart.

Assay [1] concerns the target Adenosine A2 receptor (Cavia porcellus). Kind of assay: In vitro effect on coronary vasodilation in guinea pig heart.

Molecules are shown by their SMILES.

What is called EC50 is the concentration that produces a half-maximal response. Lower therefore signals greater potency. On Adenosine receptor A1, `CC(C)C/C=N/Nc1nc(N)c2ncn([C@@H]3O[C@H](CO)[C@@H](O)[C@H]3O)c2n1` had an EC50 of 20.9 µM. Also, in assay [1], the “-Log EC50” value was determined as 9.33.

On to `Nc1nc(NCCC2=CCCCC2)nc2c1ncn2C1O[C@H](CO)[C@@H](O)[C@H]1O` (stereo partly specified), for which the EC50 at Adenosine receptor A1 was 22.9 µM. In assay [1], the “-Log EC50” value amounted to 8.65.

In turn, `CCC/C=N/Nc1nc(N)c2ncn(C3O[C@H](CO)[C@@H](O)[C@H]3O)c2n1` (stereo partly specified) had an EC50 on Adenosine receptor A1 of 11.5 µM. The “-Log EC50” value in assay [1] is on record as 8.54.

`CC(C)/C=N/Nc1nc(N)c2ncn(C3O[C@H](CO)[C@@H](O)[C@H]3O)c2n1` (stereo partly specified) had a concentration for a half-maximal effect (EC50) at Adenosine receptor A1 of 12.6 µM. The “-Log EC50” value in assay [1] is given as 8.13.

For `Nc1nc(N/N=C/C2=CCCCC2)nc2c1ncn2C1O[C@H](CO)[C@@H](O)[C@H]1O` (stereo partly specified), on Adenosine receptor A1, it took 17.4 µM to reach a half-maximal effect (EC50).

As to `C/C=N/Nc1nc(N)c2ncn(C3O[C@H](CO)[C@@H](O)[C@H]3O)c2n1` (stereo partly specified), the 50% effective concentration (EC50) on Adenosine receptor A1 was 3.63 µM. Also, the “-Log EC50” value in assay [1] was 7.12.

Turning to `CC(C)=NNc1nc(N)c2ncn(C3O[C@H](CO)[C@@H](O)[C@H]3O)c2n1` (stereo partly specified), the EC50 on Adenosine receptor A1 is 12 µM. Also, the “-Log EC50” value in assay [1] is 7.3.

In the case of `Nc1nc(N/N=C/CC2CCCCC2)nc2c1ncn2C1O[C@H](CO)[C@@H](O)[C@H]1O` (stereo partly specified), at Adenosine receptor A1, it took 9.77 µM to reach a half-maximal effect (EC50). Further, in assay [1], the “-Log EC50” value was found to be 9.16.

With `Nc1nc(N/N=C/CCC2CCCCC2)nc2c1ncn2C1O[C@H](CO)[C@@H](O)[C@H]1O` (stereo partly specified), at Adenosine receptor A1, the EC50 was 66.1 µM.

For the compound `CC/C=N/Nc1nc(N)c2ncn(C3O[C@H](CO)[C@@H](O)[C@H]3O)c2n1` (stereo partly specified), the EC50 at Adenosine receptor A1 is 13.5 µM. Further, the “-Log EC50” value in assay [1] is on record as 7.88.

On Adenosine receptor A1, `Nc1nc(N/N=C/C2=CC3CCC2C3)nc2c1ncn2C1O[C@H](CO)[C@@H](O)[C@H]1O` (stereo partly specified) showed an EC50 of 20.4 µM. Besides, the “-Log EC50” value in assay [1] is reported as 8.48.

`NNc1nc(N)c2ncn(C3O[C@H](CO)[C@@H](O)[C@H]3O)c2n1` (stereo partly specified) had an EC50 on Adenosine receptor A1 of 20 µM.

For the compound `CC(C)(C)/C=N/Nc1nc(N)c2ncn(C3O[C@H](CO)[C@@H](O)[C@H]3O)c2n1` (stereo partly specified), the EC50 at Adenosine receptor A1 was 25.1 µM. Moreover, the “-Log EC50” value in assay [1] was found to be 7.46.

Turning to `CCC(/C=N/Nc1nc(N)c2ncn(C3O[C@H](CO)[C@@H](O)[C@H]3O)c2n1)CC` (stereo partly specified), a half-maximal response on Adenosine receptor A1 (EC50) required 11 µM. For the same compound, the “-Log EC50” value in assay [1] came out at 8.24.

With `Nc1nc(N/N=C/C2CC=CCC2)nc2c1ncn2C1O[C@H](CO)[C@@H](O)[C@H]1O` (stereo partly specified), on Adenosine receptor A1, the response was half-maximal at 7.24 µM (EC50).

At Adenosine receptor A1, `CCCC/C=N/Nc1nc(N)c2ncn(C3O[C@H](CO)[C@@H](O)[C@H]3O)c2n1` (stereo partly specified) had an EC50 of 25.1 µM. Moreover, in assay [1], the “-Log EC50” value is 8.99.

As to `CC1(C)C2CC=C(/C=N/Nc3nc(N)c4ncn(C5O[C@H](CO)[C@@H](O)[C@H]5O)c4n3)C1C2` (stereo partly specified), the EC50 on Adenosine receptor A1 was 25.7 µM.

On Adenosine receptor A1, `CCC(CC)=NNc1nc(N)c2ncn(C3O[C@H](CO)[C@@H](O)[C@H]3O)c2n1` (stereo partly specified) showed an EC50 of 8.91 µM. In addition, the “-Log EC50” value in assay [1] is given as 6.75.

Consider `CCC/C(C)=N/Nc1nc(N)c2ncn(C3O[C@H](CO)[C@@H](O)[C@H]3O)c2n1` (stereo partly specified), for which the EC50 at Adenosine receptor A1 was 16.6 µM. The “-Log EC50” value in assay [1] stood at 8.7.

Consider `Nc1nc(NCCC2CCCCC2)nc2c1ncn2C1O[C@H](CO)[C@@H](O)[C@H]1O` (stereo partly specified), for which it took 12.3 µM to reach a half-maximal effect at Adenosine receptor A1 (EC50). For the same compound, the “-Log EC50” value in assay [1] is 8.72.

As for `Nc1nc(N/N=C/C2CCCCC2)nc2c1ncn2[C@@H]1O[C@H](CO)[C@@H](O)[C@H]1O` [BINODENOSON], the EC50 at Adenosine receptor A1 was 3.55 µM.
